From patent publication US8946273B2, “S-Triazolyl alpha-mercapto acetanilides as inhibitors of HIV reverse transcriptase” (priority 2011, dated 2015) come the findings set out here.

By EC50 is commonly meant the concentration needed to bring the measured effect to its halfway point. A word on the IC50: it is the concentration that inhibits the measured activity by half.

Read-outs that look alike come from different tables or passages of the source.

Assay [1] relates to wild type HIV-1. Kind of assay: microbe, parasite or virus in culture. Format: cell-based, human immunodeficiency virus type 1 (HIV-1).
The target in assay [2] is mutant HIV reverse transcriptases (Human immunodeficiency virus type 1, UniProt P12497, Y775L, cells depend on it). Type of assay: cell-based.
Assay [3] deals with mutant HIV reverse transcriptases (Human immunodeficiency virus type 1, UniProt P12497, Y768C, cells depend on it). Format: cell-based.
Assay [4] concerns the target T1, wild-type HIV reverse transcriptase (Human immunodeficiency virus type 1 group M subtype B, UniProt P04585).
T1 construct: wild-type and four mutant HIV reverse transcriptases
Kind of assay: Activity on wild type reverse transcriptase (Table 1 IC50 WT). Type of assay: biochemical. Here is the method: Using similar methods as described above, 2-[5-bromo-4-(4-cyclopropylnaphthalen-1-yl)-4H-[1,2,4]triazol-3-ylsulfanyl]-N-(2-methyl-4-sulfamoylphenyeacetamide and 2-[5-bromo-4-(4-ethylnaphthalen-1-yl)-4H-[1,2,4]triazol-3-ylsulfanyl]-N-(2-chloro-4-sulfamoylphenyl)-acetamide were synthesized, as were the N-4-carbamyl analog, 2-[5-bromo-4-(4-ethyl-naphthalen-1-yl)-4H-[1,2,4]triazol-3-ylsulfanyl]-N-(2-chloro-4-carbamoylphenyl)-acetamide and the N-4-carboxyl analog. Each of the compounds was tested against a panel of mutant HIV reverse transcriptases, including 20 of the 22 of the mutants that are found in about 2% or more of the patient samples that are resistant to the most widely used non-nucleoside HIV-RT inhibitor efavirenz ((4S)-6-chloro-4-(cyclopropylethynyl)-1,4-dihydro-4-(trifluoromethyl)-2H-3,1-benzoxazin-2-one). […] In most cases both criteria were met. […] […].
Compounds of the invention were tested against the wild-type and four mutant HIV reverse transcriptases. The results are listed in Table 1 as EC50 (nM) and IC50 (nM). In the Table, A represents <50 nM, B is between 50 and 100 nM, and C is >100 nM. ND is not determined.

Setting [5] is: Human immunodeficiency virus 1, Hela-JC53, read-out: EC50 WT.
Setting [6] is: read-out: EC50 WT, wild-type (WT) HIV-1.
Setting [7] is: read-out: IC50 WT RT, wild-type (WT) RT.

For the compound `Cc1ccc(-n2c(SCC(=O)Nc3ccc(C(=O)O)cc3Cl)nnc2C(F)F)c2c1CCCC2` [compound 2], the EC50 in assay [1] (setting [5]), in assay [2] and in assay [3] was less than 50 nM throughout. The same compound showed a 50% inhibitory concentration (IC50) in assay [4] of less than 50 nM.
`CCc1ccc(-n2c(SCC(=O)Nc3ccc(C(=O)O)cc3C)nnc2C(F)F)c2ccccc12` [compound 3]: the concentration for a half-maximal effect (EC50) in assay [1] (setting [5]) was less than 50 nM; in assay [2] it was greater than 100 nM; in assay [3], 50 to 100 nM. The concentration for half-maximal inhibition (IC50) in assay [4] was less than 50 nM.
For `CCc1ccc(-n2c(SCC(=O)Nc3ccc(C(=O)O)cc3Cl)nnc2C(F)F)c2ccccc12` [compound 4], the half-maximal effective concentration (EC50) in assay [1] (setting [5]), in assay [2] and in assay [3] was less than 50 nM each time. This compound also displayed a 50% inhibitory concentration (IC50) in assay [4] of less than 50 nM.
For the compound `Cc1cc(C(=O)O)ccc1NC(=O)CSc1nnc(C(F)F)n1-c1ccc(C)c2c1CCCC2` [compound 5], the EC50 in assay [1] (setting [5]) is less than 50 nM; in assay [2], greater than 100 nM; in assay [3], greater than 100 nM. The same compound showed a half-inhibitory concentration (IC50) in assay [4] of less than 50 nM.
For the compound `CCc1ccc(-n2c(Br)nnc2SCC(=O)Nc2ccc(C(=O)O)cc2C)c2ccccc12` [compound 6], the results for the EC50 in assay [1] (setting [5]), in assay [2] and in assay [3] were less than 50 nM, greater than 100 nM and less than 50 nM, respectively. Further, the 50% inhibitory concentration (IC50) in assay [4] was less than 50 nM.
As for `CCc1ccc(-n2c(Br)nnc2SCC(=O)Nc2ccc(C(=O)O)cc2Cl)c2ccccc12` [compound 8], the EC50 in assay [1] (setting [5]), in assay [2] and in assay [3] was less than 50 nM each time. For the same compound, the IC50 in assay [4] is less than 50 nM.
With `CCc1ccc(-n2c(Br)nnc2SCC(=O)Nc2ccc(C(=O)O)cc2Cl)c2ccccc12` [compound 9], the EC50 in assay [1] (setting [6]) and in assay [3] was less than 50 nM each time.
Take `O=C(CSc1nnc(Br)n1-c1ccc(C2CC2)c2ccccc12)Nc1ccc(C(=O)O)cc1Cl` [compound 10]: the EC50 in assay [1] (setting [5]), in assay [2] and in assay [3] was less than 50 nM in each case. The IC50 in assay [4] was less than 50 nM.
As for `O=C(CSc1nnc(Br)n1-c1ccc(C2CC2)c2ccccc12)Nc1ccc(C(=O)O)cc1Cl` [compound 11], the EC50 in assay [1] (setting [6]), in assay [2] and in assay [3] was less than 50 nM in each case. In addition, in assay [4] (setting [7]), the half-maximal inhibitory concentration (IC50) is less than 50 nM.
For `O=C(CSc1nnc(Br)n1-c1ccc(C2CC2)c2ccccc12)Nc1ccc(C(=O)O)cc1Cl` [compound 12], the half-maximal effective concentration (EC50) in assay [1] (setting [6]), in assay [2] and in assay [3] was less than 50 nM in each case. In assay [4] (setting [7]), the concentration for half-maximal inhibition (IC50) was less than 50 nM.
Regarding `COc1ccc2cccc(-n3c(Br)nnc3SCC(=O)Nc3ccc(C(=O)O)cc3Cl)c2c1` [compound 13], the concentration giving a half-maximal response (EC50) in assay [1] (setting [5]), in assay [2] and in assay [3] was less than 50 nM in each case. The same compound returned an IC50 in assay [4] of less than 50 nM.
Regarding `O=C(CSc1nnc(C(F)F)n1-c1ccc(C2CC2)c2ccccc12)Nc1ccc(C(=O)O)cc1Cl` [compound 14], the concentration giving a half-maximal response (EC50) in assay [1] (setting [5]), in assay [2] and in assay [3] was less than 50 nM throughout. Besides, the IC50 in assay [4] is less than 50 nM.
With `Cc1cc(C2CC2)c2ccccc2c1-n1c(Br)nnc1SCC(=O)Nc1ccc(S(=O)(=O)O)cc1Cl` [compound 15], the EC50 in assay [1] (setting [5]) was less than 50 nM; in assay [2] it was greater than 100 nM; in assay [3], 50 to 100 nM. For the same compound, in assay [4], the concentration for half-maximal inhibition (IC50) was less than 50 nM.
Turning to `COc1ccc2c(C)ccc(-n3c(Br)nnc3SCC(=O)Nc3ccc(C(=O)O)cc3Cl)c2c1` [compound 18], the half-maximal effective concentration (EC50) in assay [2] and in assay [3] was less than 50 nM throughout.
With `Cc1cc(C2CC2)cc(Cl)c1-n1c(Br)nnc1SCC(=O)Nc1ccc(C(=O)O)cc1Cl` [compound 28], the EC50 in assay [2] and in assay [3] was less than 50 nM each time.
`COc1ccc2c(C3CC3)ccc(-n3c(Br)nnc3SCC(=O)Nc3ccc(C(=O)O)cc3Cl)c2c1` [compound 34]: the concentration for a half-maximal effect (EC50) in assay [1] (setting [5]), in assay [2] and in assay [3] was less than 50 nM throughout.
On to `Cc1cc(C(=O)O)ccc1NC(=O)CSc1nnc(Br)n1-c1ccc(C2CC2)c2ccccc12` [compound 35], for which, in assay [1] (setting [5]), the EC50 was less than 50 nM. Further, in assay [4], the IC50 is less than 50 nM.
On to `NS(=O)(=O)c1ccc(NC(=O)CSc2nnc(Br)n2-c2ccc(C3CC3)c3ccccc23)c(Cl)c1` [compound 39], for which the EC50 in assay [1] (setting [6]), in assay [2] and in assay [3] was less than 50 nM each time.
Take `NS(=O)(=O)c1ccc(NC(=O)CSc2nnc(Br)n2-c2ccc(C3CC3)c3ccccc23)c(Cl)c1` [compound 42]: the EC50 in assay [1] (setting [6]), in assay [2] and in assay [3] was less than 50 nM in each case.
For `Cc1cc(C)c2ccccc2c1-n1c(CF)nnc1SCC(=O)Nc1ccc(S(N)(=O)=O)cc1Cl` [compound 53], the EC50 in assay [1] (setting [5]), in assay [2] and in assay [3] was less than 50 nM each time.
Take `CC(Sc1nnc(Br)n1-c1ccc(C2CC2)c2ccccc12)C(=O)Nc1ccc(S(N)(=O)=O)cc1Cl` (stereo not drawn) [compound 76]: the values for the concentration for a half-maximal effect (EC50) in assay [2] and in assay [3] were greater than 100 nM and 50 to 100 nM, respectively.
For `NS(=O)(=O)c1ccc(NC(=O)CSc2nnc(Br)n2-c2ccc(C3CC3)c3ccccc23)c(Cl)c1` [compound 77], the concentration giving a half-maximal response (EC50) in assay [1] (setting [5]) is less than 50 nM; in assay [2], greater than 100 nM; in assay [3], 50 to 100 nM.
As for `NS(=O)(=O)c1ccc(NC(=O)CSc2nnc(Br)n2-c2ccc(C3CC3)cc2)c(Cl)c1` [compound 78], the results for the EC50 in assay [2] and in assay [3] were greater than 100 nM and less than 50 nM, respectively.
For the compound `CCc1ccc(-n2c(Br)nnc2SCC(=O)Nc2ccc(S(N)(=O)=O)cc2Cl)c2c1CCCC2` [compound 79], the EC50 in assay [1] (setting [5]), in assay [2] and in assay [3] was less than 50 nM in each case.
For `Cc1cc(S(N)(=O)=O)ccc1NC(=O)CSc1nnc(Br)n1-c1ccc(C)c2c1CCCC2` [compound 80], the concentration for a half-maximal effect (EC50) in assay [1] (setting [5]), in assay [2] and in assay [3] was less than 50 nM each time.
As to `Cc1ccc2c(C)ccc(-n3c(Br)nnc3SCC(=O)Nc3ccc(S(N)(=O)=O)cc3Br)c2c1` [compound 81], the concentration for a half-maximal effect (EC50) in assay [1] (setting [5]), in assay [2] and in assay [3] was less than 50 nM in each case.
As for `Cc1cc(C)c2ccccc2c1-n1c(CF)nnc1SCC(=O)Nc1ccc(S(N)(=O)=O)cc1Cl` [compound 82], the EC50 in assay [1] (setting [6]) and in assay [3] was less than 50 nM throughout.
As for `CCCc1ccc(-n2c(Br)nnc2SCC(=O)Nc2ccc(S(N)(=O)=O)cc2Cl)c2ccccc12` [compound 85], the concentration for a half-maximal effect (EC50) in assay [1] (setting [5]), in assay [2] and in assay [3] was less than 50 nM in each case.
With `CCCc1ccc(-n2c(Br)nnc2SCC(=O)Nc2ccc(S(N)(=O)=O)cc2C)c2ccccc12` [compound 86], the EC50 in assay [1] (setting [5]), in assay [2] and in assay [3] was less than 50 nM each time.
Turning to `CCc1ccc(-n2c(Br)nnc2SCC(=O)Nc2ccc(S(N)(=O)=O)cc2Cl)c2ccccc12` [compound 87], the concentration for a half-maximal effect (EC50) in assay [1] (setting [5]), in assay [2] and in assay [3] was less than 50 nM each time.
Regarding `Cc1cc(C2CC2)ccc1-n1c(Br)nnc1SCC(=O)Nc1ccc(S(N)(=O)=O)cc1Cl` [compound 88], the EC50 in assay [1] (setting [5]), in assay [2] and in assay [3] was less than 50 nM throughout.
Regarding `NS(=O)(=O)c1ccc(NC(=O)CSc2nnc(Cl)n2-c2ccc(C3CC3)c3ccccc23)c(Cl)c1` [compound 89], the concentration giving a half-maximal response (EC50) in assay [1] (setting [5]), in assay [2] and in assay [3] was less than 50 nM each time.
With `NS(=O)(=O)c1ccc(NC(=O)CSc2nnc(Br)n2-c2ccc(C3CC3)cc2OC(F)(F)F)c(Cl)c1` [compound 90], the 50% effective concentration (EC50) in assay [2] is 50 to 100 nM; in assay [3] it was less than 50 nM.
For the compound `NS(=O)(=O)c1ccc(NC(=O)CSc2nnc(Br)n2-c2c(Cl)cc(C3CCC3)c3ccccc23)c(Cl)c1` [compound 91], the half-maximal effective concentration (EC50) in assay [1] (setting [5]), in assay [2] and in assay [3] was less than 50 nM in each case.
For `Cc1cc(C2CC2)cc(Cl)c1-n1c(Br)nnc1SCC(=O)Nc1ccc(S(N)(=O)=O)cc1Cl` [compound 93], the EC50 in assay [2] and in assay [3] was less than 50 nM throughout.
In the case of `Cc1cc(S(N)(=O)=O)ccc1NC(=O)CSc1nnc(Br)n1-c1ccc(C2CCC2)c2ccccc12` [compound 94], the EC50 in assay [2] and in assay [3] was less than 50 nM each time.
Consider `NS(=O)(=O)c1ccc(NC(=O)CSc2nnc(Br)n2-c2ccc(C3CCC3)c3ccccc23)c(Cl)c1` [compound 95], for which the EC50 in assay [1] (setting [5]), in assay [2] and in assay [3] was less than 50 nM in each case.
With `N#Cc1cccc2c(-n3c(SCC(=O)Nc4ccc(S(N)(=O)=O)cc4Cl)nnc3C(F)F)cccc12` [compound 96], the values for the EC50 in assay [2] and in assay [3] were greater than 100 nM and less than 50 nM, respectively.
In the case of `Cc1ccc2ccccc2c1-n1c(Br)nnc1SC(C)C(=O)Nc1ccc(S(N)(=O)=O)cc1Cl` (stereo not drawn) [compound 141], the EC50 in assay [1] (setting [5]) was less than 50 nM. In assay [4], this compound yielded a half-inhibitory concentration (IC50) of less than 50 nM.
